Bounds are passed on as bounds.

Data on two compounds can be found in patent EP0986381B1, “USE OF DITERPENES LIKE HYPOESTOXIDES FOR THE MANUFACTURE OF A MEDICAMENT FOR IMMUNOSUPPRESSION, ANTICANCER AND ANTIVIRAL TREATMENT” (Immune Modulation, Inc., priority 1997, dated 1998).

The test system of data set [1] is HSV-2. Briefly: In vitro HSV-2 replication assay, Hybriwix Probe Systems. Type of data set: cell-based, Herpes simplex virus. Here is the method:
The antiviral activity of the drug was determined using the Hybriwix™ Probe Systems (Herpes Antiviral Susceptibility Test kit: Diagnostic Hybrids, Inc., Athens, OH). Briefly, either HSV-1 or HSV-2 isolates (ATTC, Rockville, MD) were pre-adsorbed at 37°C and 5% CO2 in a humidified incubator for 60 minutes on African green monkey Kidney cells in a 24-well flat-bottom plate. Following pre-adsorption, the viral inoculum was removed and the growth medium containing various concentrations of appropriate drug was placed in appropriate wells. The culture was continued for 48 hours for the amplification of the virus. Quantification of the HSV DNA present in each well was determined by the nucleic acid hybridization method. The cells and/or virus were lysed with DNA wicking agent and the single-stranded DNA was immobilized on a Hybriwix™ filter by a vertical capillary absorption of the wicking agent/DNA solution. The amount of HSV target DNA from each well was determined using radioactive (I^125)-HSV DNA probe containing genetic sequences, which are homologous to HSV-1 or HSV-2 sequences. The amount of radioactivity present on the Hybriwix™ was dependent upon the amount of HSV DNA present after culture, and was determined in a gamma counter (Packard Instrument Co., Meriden, CT).

Data set [2] in a line: Colorimetric MTT cytotoxicity assay, CV-1 cells. It is filed as cell-based. The note with it: african green monkey, read-out: concentration giving cytotoxicity of greater than 50%. Here is the method:
Normal African green monkey kidney cells (CV-1): CV-1 cells from the Hybriwix™ Probe Systems: Herpes Antiviral Susceptibility Test kit (Diagnostic Hybrids, Inc., Athens, OH) were used for toxicity testing of JO-4A by MTT assay. Colorimetric MTT assay: Cytotoxic effects of drugs were determined in vitro by a colorimetric assay (Mosmann, T., J. Immunol. Methods, 65: 55-63, 1983). Briefly, 1000 cells per well (100 µl) in a 96-well flat-bottom plate were cultured either with the culture medium alone or with various concentrations of drug at 37°C, in a 5% CO2-95% air humidified incubator for 72 hours. At the end of the culture, 10 µl of 5 mg/ml sterile solution of 3-(4,5-Dimethylthiazol-2yl)-2,5-diphenyltetrazolium bromide (MTT) (Sigma Chemicals, Saint Louis, MO) in PBS was added per well and the incubation was resumed for an additional 4 hours. Acid-isopropanol (100 µl of 0.04 N HCl in isopropanol) was added to all wells and kept at room temperature for 30 minutes. Mixing with a multichannel pipetter dissolved the dark blue crystals and the absorbance was measured at 545-650 nm using an ELISA plate reader.

Data set [3] has as its system human two-way mixed lymphocyte reaction (PBMCs from two individuals). Briefly: Two-way mixed leukocyte reaction (MLR), 3H-thymidine incorporation. Type of data set: cell-based. Here is the method:
The MLR is an assay recognized by those skilled in the art as an in vitro predictor of in vivo immunosuppressant activity. The MLR is an in vitro model of T-cell recognition of foreign major histocompatibility complex (MHC) gene products and was used as a predictive test of cell-mediated graft rejection (Abbas, A.K., et al., eds, 1994, 2nd ed. Cellular and Molecular Immunology, W.B. Saunders Co., USA). Graft rejection is carried out by T cells that recognize MHC molecules and destroy the graft. This process can be studied in vivo, but in-depth analysis, especially in humans, required the development of tests such as the MLR as an in vitro correlate of graft rejection. (Janeway, Chas. and Travers, Paul, Immunobiology, 2nd Ed., Garland Publishing, Inc, New York (1996)). It is well known in the art that the MLR is induced by co-culturing mononuclear leukocytes from one individual with mononuclear leukocytes derived from another individual. If there are differences in the alleles of the MHC genes between the two individuals, a large proportion of the mononuclear cells will proliferate over a period of 4-7 days, and is referred to as allogeneic MLR. The level of proliferative response is measured by incorporation of ^3H-thymidine into DNA during cell replication. Because the cells from each donor react and proliferate against the other, the resultant response is known as a "two-way MLR". JO-4 was tested in the MLR for its ability to "immunosuppress".
Mononuclear cells (at 2 x 10^6/ml) of each donor were first mixed thoroughly together in a 50 ml tube at a 1:1 ratio with volume. […] Cells were harvested onto glass fiber filters (Packard, Downers Grove, IL) with a 96-well automatic cell harvester (TOMTEC, Hamden, CT) and were counted directly on a Matrix 9600 beta counter (Packard).
Data were expressed as percent inhibition (% Inhibition) according to the following formula: % Inhibition = 100 -((Counts per minute (CPM) for wells with drug x 100))/(CPM for wells without drug) [formula] […]

The subject of data set [4] is human PBMCs. Put plainly: PHA-induced proliferation of human PBMCs. Type of data set: cell-based. The note with it: 1.25-50.0 µg/mL, 4 days. Here is the method:
Human PBMCs were cultured for 4 days in the absence or presence of varying concentrations of JO-4 (1.25, 2.5, 5.0, 10.0 and 50.0 µg/mL). PHA is a potent T-cell mitogen and stimulates T-cells to produce IL-2.

The nature of data set [5]: Colorimetric MTT cytotoxicity assay, HMEC. It is filed as cell-based. The note with it: human, read-out: IC50 concentration (cytotoxicity).

Take `C=C1C(=O)C[C@H]2C[C@@H]3O[C@@]3(C)CC[C@@H]3O[C@@]3(C)C[C@@H](OC(C)=O)[C@H]1C2(C)C` [JO-4, hypoestoxide]: the inhibition at 3.125 µM in data set [1] (Human alphaherpesvirus 2, 48 h, 3.125 µM, two days, African green monkey kidney cells) amounted to 58%. In data set [1] (Human alphaherpesvirus 2, 48 h, 12.5 µM, two days, African green monkey kidney cells), this compound showed an inhibition at 12.5 µM of 65%. In data set [1] (Human alphaherpesvirus 2, 48 h, two days, African green monkey kidney cells, read-out: IC50 dose on HSV-1 inhibition (paragraph on HSV-2 replication)), the IC50 is under 3.12 µM. Further, in data set [2], the CC50 at 72 h was over 50 µM. Also, in data set [3] (JO-4 at 1.0, 0.5 or 0.25 µg/ml, 5 days), the “effect on two-way MLR” value is on record as “inhibited”. For the same compound, the “effect on PHA-induced proliferation of human lymphocytes” value in data set [4] is “inhibitory effect”.
For the compound `C=C1C(=O)CC2CC3OC3(C)CCC3OC3(C)CC(O)C1C2(C)C` (centres unmarked) [JO-4A], the CC50 at 72 h is 25 to 50 µM in data set [5] and about 25 µM in data set [2]. Besides, in data set [1] (African Green Monkey kidney cells), the “replication and growth of HSV-2” value is recorded as “inhibited”. Further, the IC50 in data set [3] (Homo sapiens, Leukocyte, 120 h, 5 days) lay within 5 to 10 µM. In addition, at 10 µM the inhibition in data set [3] (Homo sapiens, Leukocyte, at 10.0 µM) was 64%.
